For data set [1], the target named is beta amyloid (1-42) (Homo sapiens, UniProt P05067). Kind of data set: Inhibitory activity against beta amyloid fibril formation (ThT fluorescence). The class given is biochemical. Conditions: for remaining activity at 10 µM: compound 10 μM, beta amyloid (1-42) 25 μM, 1 hr room temperature, beta amyloid alone (control) = 100. As for the experimental part: The compounds of the present invention were assayed for inhibitory activity against the formation of beta amyloid fibrils as a function of ThT fluorescence intensity as follows. Beta amyloid (1-42) and each of the compounds of Examples 1 to 27 were dissolved in DMSO and diluted with PBS (phosphate-buffered saline, pH 7.4). The final concentrations of beta amyloid (1-42) (control) and each of the compounds of Examples 1 to 27 were set at 25 μM and 10 μM, respectively. The dilutions were incubated at room temperature for 1 hr before a solution of thioflavin T (ThT, 5 μM, pH 8.5) in glycin-NaOH buffer was added thereto. Fluorescence was measured at 450 nm for excitation (slit 10 nm) and […] for emission (slit 10 nm) on 96-well microplates using a multilabel fluorescence counter.
beta amyloid (1-42), sequence (P05067 672-713 limits assumed): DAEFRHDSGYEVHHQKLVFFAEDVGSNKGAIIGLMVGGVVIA

Data set [2] concerns HT-22 cells. In words: Cytotoxicity in HT-22 cell (MTT). Conditions: compound 25 μM, 18 hrs. Format: cell-based, murine. The procedure: The following experiment was performed with HT-22 cells in order to examine the cytotoxicity of the compounds of the Examples in accordance with the present invention.
(§1) The murine hippocampal neuronal cell line HT-22 was incubated at 37° C. in DMEM (Dulbecco's Modified Eagle's Medium) supplemented with 10% FBS (fetal bovine serum) and 1% penicillin/streptomycin in a 5% CO2 incubator. Before testing, HT-22 cells were seeded at a density of 5×10^3 cells/well onto 96-well plates containing serum-free DMEM and incubated for 1 hr. Afterwards, each of the compounds of Examples 1 to 27 was added at a concentration of 25 μM to each well before incubation for 18 hrs. 5 mg/ml MTT (3-(4,5-dimethyl-2-thiozolyl)-2,5-diphenyl-2H-tetrazolium bromide) solution was added in an amount of 15 μl per well and incubated for 4 hrs. A solubilization solution (10% SDS, 50% dimethylformamide, pH 4.7) was added in an amount of 100 μl to each well, followed by incubation for 18 hrs. Absorbance at 570 nm/630 nm was read on a microplate reader.

The subject of data set [3] is HT-22 cells incubated with beta amyloid (Aβ25-35). Kind of data set: Alleviating effect on beta amyloid toxicity in HT-22 cells (MTT). The class given is cell-based, murine. Conditions: Mus musculus, compound pre-incubated 1 hr, then 25 μM beta amyloid (Aβ25-35) for 18 hrs, Aβ25-35 line = toxin alone, read-out: Cell Survival (%). As for the experimental part: as §1
The following experiment was performed in order to examine the ability of the compounds of the Examples in accordance with the present invention to alleviate beta amyloid toxicity. HT-22 cells were cultured and incubated with the compounds of Examples 1 to 27 for 1 hr in the same manner as in Example 2. Cell necrosis was induced by beta amyloid toxicity. For this, the cells were incubated with 25 μM of beta amyloid (Aβ25-35) for 18 hrs. Subsequently, a 5 mg/ml MTT solution was added in an amount of 15 μl to each well, followed by incubation for 4 hrs. Then, the cells were again incubated for 18 hrs with 100 μl/well of the solubilization solution. Absorbance at 570 nm/630 nm was read on a microplate reader.

The remaining activity is the signal under treatment as a percentage of the control signal.

With `CN(C)c1ccc(/C=C/c2cc(O)cc(/C=C/c3ccc(N(C)C)c(O)c3)c2)cc1O` [Ex. 27, (E,E)-3,5-bis[3′-hydroxy-4′-(N,N-dimethylamino)styryl]phenol], the remaining activity at 10 µM in data set [1] was 16.7 ± 0.7%. Also, the “Cell Survival (%)” value in data set [2] worked out at 64.4 ± 4.2%. Moreover, the viability at 25 µM in data set [3] turned out to be 50.5 ± 3.9%.

`COc1cc(/C=C/c2cc(O)cc(/C=C/c3ccc(O)c(OC)c3)c2)ccc1O` [Ex. 24, (E,E)-3,5-bis(4′-hydroxy-3′-methoxystyryl)phenol]: in data set [1], the remaining activity at 10 µM is 21 ± 2.4%. The “Cell Survival (%)” value in data set [2] stood at 80.9 ± 13.1%. Also, the viability at 25 µM in data set [3] came out at 39.9 ± 9.5%.

Take `Oc1cccc(/C=C/c2cc(O)cc(/C=C/c3cccc(O)c3)c2)c1` [Ex. 23, (E,E)-3,5-bis(3′-hydroxystyryl)phenol]: the remaining activity at 10 µM in data set [1] came to 92.9 ± 12.4%. In addition, in data set [2], the “Cell Survival (%)” value came to 59.2 ± 15.4%. The viability at 25 µM in data set [3] stood at 47.7 ± 11.1%.

For `COc1nc(/C=C/c2ccc(O)cc2)cc(/C=C/c2ccc(O)cc2)n1` [Ex. 8, 2-methoxy-(E,E)-4,6-bis(4′-hydroxystyryl)pyrimidine], the remaining activity at 10 µM in data set [1] came out at 32.6 ± 7.3%. Besides, in data set [2], the “Cell Survival (%)” value worked out at 101.2 ± 31.8%. Further, the viability at 25 µM in data set [3] worked out at 100 ± 7%.

Regarding `Oc1cccc(/C=C/c2cc(/C=C/c3cccc(O)c3)ncn2)c1` [Ex. 5, (E,E)-4,6-bis(3′-hydroxystyryl)pyrimidine], the remaining activity at 10 µM in data set [1] stood at 85.9 ± 19.7%. For the same compound, the “Cell Survival (%)” value in data set [2] is 142.5 ± 5.6%. The viability at 25 µM in data set [3] came out at 43.5 ± 13.4%.

Turning to `COc1ccc(/C=C/c2cc(O)cc(/C=C/c3ccc(OC)c(O)c3)c2)cc1O` [Ex. 25, (E,E)-3,5-bis(3′-hydroxy-4′-methoxystyryl)phenol], the remaining activity at 10 µM in data set [1] is 15.5 ± 3.8%. Further, the “Cell Survival (%)” value in data set [2] worked out at 73.5 ± 14.1%. Also, the viability at 25 µM in data set [3] was 43.2 ± 10%.

Turning to `CSc1nc(/C=C/c2cccc(O)c2)cc(/C=C/c2cccc(O)c2)n1` [Ex. 15, 2-methylthio-(E,E)-4,6-bis(3′-hydroxystyryl)pyrimidine], in data set [1], the remaining activity at 10 µM came to 153 ± 16.3%. Moreover, the “Cell Survival (%)” value in data set [2] is recorded as 43.7 ± 6.6%. In addition, the viability at 25 µM in data set [3] came to 39.6 ± 0.4%.

As to `COc1nc(/C=C/c2ccc(O)c(OC)c2)cc(/C=C/c2ccc(O)c(OC)c2)n1` [Ex. 10, 2-methoxy-(E,E)-4,6-bis(4′-hydroxy-3′-methoxystyryl)pyrimidine], the remaining activity at 10 µM in data set [1] is 32 ± 11.6%. Further, the “Cell Survival (%)” value in data set [2] was 75.2 ± 12.5%. Also, the viability at 25 µM in data set [3] was 71.7 ± 14.8%.

As to `COc1nc(/C=C/c2ccc(N(C)C)c(O)c2)cc(/C=C/c2ccc(N(C)C)c(O)c2)n1` [Ex. 13, 2-methoxy-(E,E)-4,6-bis[3′-hydroxy-4′-(N,N-dimethylamino)styryl]pyrimidine], the “Inhibitory activity against fibril formation (in words)” value in data set [1] (Table 3) is reported as “remarkable inhibitory activity”. For the same compound, the remaining activity at 10 µM in data set [1] stood at 9.6 ± 3.7%. Moreover, in data set [2], the “Cell Survival (%)” value was found to be 101.4 ± 2.5%. Further, the viability at 25 µM in data set [3] is 67.4 ± 5.1%.

Turning to `CN(C)c1cc(/C=C/c2cc(O)cc(/C=C/c3ccc(O)c(N(C)C)c3)c2)ccc1O` [Ex. 26, (E,E)-3,5-bis[4′-hydroxy-3′-(N,N-dimethylamino)styryl]phenol], in data set [1], the remaining activity at 10 µM came out at 25.8 ± 5.8%. Also, in data set [2], the “Cell Survival (%)” value was 66.0 ± 12.1%. For the same compound, in data set [3], the viability at 25 µM came out at 47.4 ± 0.6%.

As to `Oc1ccc(/C=C/c2cc(O)cc(/C=C/c3ccc(O)cc3)c2)cc1` [Ex. 22, (E,E)-3,5-bis(4′-hydroxystyryl)phenol], the remaining activity at 10 µM in data set [1] amounted to 19.3 ± 1.1%. The “Cell Survival (%)” value in data set [2] is 37.4 ± 4.7%. Moreover, the viability at 25 µM in data set [3] came out at 50.6 ± 10.1%.

As to `COc1ccc(/C=C/c2cccc(/C=C/c3ccc(OC)c(O)c3)c2)cc1O` [Ex. 3, (E,E)-1,3-Bis(3′-hydroxy-4′-methoxystyryl)benzene], the remaining activity at 10 µM in data set [1] was 32.1 ± 1.1%. The “Cell Survival (%)” value in data set [2] was determined as 69.5 ± 4.2%. In addition, the viability at 25 µM in data set [3] was determined as 54.7 ± 5.3%.

Consider `COc1cc(/C=C/c2cc(/C=C/c3ccc(O)c(OC)c3)nc(SC)n2)ccc1O` [Ex. 16, 2-methylthio-(E,E)-4,6-bis(4′-hydroxy-3′-methoxystyryl)pyrimidine], for which the remaining activity at 10 µM in data set [1] was 32.4 ± 12.5%. The “Cell Survival (%)” value in data set [2] worked out at 79.0 ± 7.9%. Also, the viability at 25 µM in data set [3] came out at 49 ± 4.2%.

`CSc1nc(/C=C/c2ccc(N(C)C)c(O)c2)cc(/C=C/c2ccc(N(C)C)c(O)c2)n1` [Ex. 19, 2-methylthio-(E,E)-4,6-bis[3′-hydroxy-4′-(N,N-dimethylamino)styryl]pyrimidine]: the remaining activity at 10 µM in data set [1] is 11.2 ± 4.2%. In addition, in data set [2], the “Cell Survival (%)” value is 85.3 ± 8.1%. In data set [3], the viability at 25 µM came out at 69.7 ± 0.4%.

`CSc1nc(/C=C/c2ccc(O)c(N(C)C)c2)cc(/C=C/c2ccc(O)c(N(C)C)c2)n1` [Ex. 18, 2-methylthio-(E,E)-4,6-bis[4′-hydroxy-3′-(N,N-dimethylamino)styryl]pyrimidine]: the remaining activity at 10 µM in data set [1] was 21.4 ± 10.3%. Further, the “Cell Survival (%)” value in data set [2] amounted to 77.3 ± 15.1%. Moreover, in data set [3], the viability at 25 µM turned out to be 50.9 ± 5.7%.

Regarding `CSc1nc(/C=C/c2ccc(O)cc2)cc(/C=C/c2ccc(O)cc2)n1` [Ex. 14, 2-methylthio-(E,E)-4,6-bis(4′-hydroxystyryl)pyrimidine], in data set [1], the remaining activity at 10 µM amounted to 32.6 ± 7.4%. In data set [2], the “Cell Survival (%)” value amounted to 65.3 ± 6.0%. In data set [3], the viability at 25 µM was 34.2 ± 4%.

On to `Oc1ccc(/C=C/c2cc(/C=C/c3ccc(O)cc3)ncn2)cc1` [Ex. 4, (E,E)-4,6-bis(4′-hydroxystyryl)pyrimidine], for which, in data set [1], the remaining activity at 10 µM was 35.7 ± 7%. Moreover, the “Cell Survival (%)” value in data set [2] is on record as 104.2 ± 7.1%. Besides, in data set [3], the viability at 25 µM came to 81 ± 1.2%.

For the compound `COc1nc(/C=C/c2ccc(O)c(N(C)C)c2)cc(/C=C/c2ccc(O)c(N(C)C)c2)n1` [Ex. 12, 2-methoxy-(E,E)-4,6-bis[4′-hydroxy-3′-(N,N-dimethylamino)styryl]pyrimidine], the remaining activity at 10 µM in data set [1] turned out to be 25.9 ± 7.3%. The “Cell Survival (%)” value in data set [2] worked out at 96.6 ± 13.7%. The viability at 25 µM in data set [3] turned out to be 59 ± 5.7%.

Regarding `COc1nc(/C=C/c2cccc(O)c2)cc(/C=C/c2cccc(O)c2)n1` [Ex. 9, 2-methoxy-(E,E)-4,6-bis(3′-hydroxystyryl)pyrimidine], the remaining activity at 10 µM in data set [1] was determined as 129 ± 11.6%. Moreover, the “Cell Survival (%)” value in data set [2] was determined as 45.9 ± 4.2%. The viability at 25 µM in data set [3] was 47.7 ± 3.3%.

As for `COc1ccc(/C=C/c2cc(/C=C/c3ccc(OC)c(O)c3)nc(SC)n2)cc1O` [Ex. 17, 2-methylthio-(E,E)-4,6-bis(3′-hydroxy-4′-methoxystyryl)pyrimidine], the remaining activity at 10 µM in data set [1] was 24.8 ± 11.1%. The “Cell Survival (%)” value in data set [2] is 78.8 ± 9.3%. The viability at 25 µM in data set [3] came to 78.3 ± 0.4%.

On to `CN(C)c1ccc(/C=C/c2cccc(/C=C/c3ccc(N(C)C)c(O)c3)c2)cc1O` [Ex. 21, (E,E)-1,3-bis[3′-hydroxy-4′-(N,N-dimethylamino)styryl]benzene], for which the remaining activity at 10 µM in data set [1] is 44 ± 8.3%. For the same compound, the “Cell Survival (%)” value in data set [2] is given as 100.8 ± 7.6%. Further, the viability at 25 µM in data set [3] amounted to 52.8 ± 7.2%.

Consider `CN(C)c1cc(/C=C/c2cccc(/C=C/c3ccc(O)c(N(C)C)c3)c2)ccc1O` [Ex. 20, (E,E)-1,3-bis[4′-hydroxy-3′-(N,N-dimethylamino)styryl]benzene], for which, in data set [1], the remaining activity at 10 µM was 36.1 ± 10.1%. The “Cell Survival (%)” value in data set [2] was found to be 95.7 ± 8.3%. Moreover, in data set [3], the viability at 25 µM is 45.8 ± 9.1%.

With `COc1nc(/C=C/c2ccc(OC)c(O)c2)cc(/C=C/c2ccc(OC)c(O)c2)n1` [Ex. 11, 2-methoxy-(E,E)-4,6-bis(3′-hydroxy-4′-methoxystyryl)pyrimidine], the remaining activity at 10 µM in data set [1] was found to be 45 ± 9.2%. Further, the “Cell Survival (%)” value in data set [2] worked out at 98.4 ± 2.7%. Besides, the viability at 25 µM in data set [3] turned out to be 66.2 ± 11.5%.

These data come from patent publication US8410116B2, “Bis(styryl)pyrimidine or bis(styryl)benzene compounds, pharmaceutically acceptable salts thereof, preparation method thereof, and pharmaceutical composition for prevention or treatment of diseases featuring amyloids comprising the same as an active ingredient” (Korea Institute of Science and Technology, priority 2009, dated 2013).
